From US7217730B2, “Method for the use of pyranoindole derivatives to treat infection with Hepatitis C virus” (Wyeth, priority 2002, dated 2007)
pIC50: −log10 of the molar value. Like-named read-outs stand apart in the source and are kept apart here.

How the values were obtained:
[1] = target: T1, NS5B from the BK strain (genotype 1b) (Hepatitis C virus genotype 1b, UniProt P26663); test: Hepatitis C polymerase inhibition, NS5B BK strain, 33P-GTP filter assay; format: biochemical; conditions: NS5B BK strain
T1 construct: NS5B from the BK strain (genotype 1b) is expressed in E. coli as a protein in which the 21 C-terminal amino acids are replaced; made in house; host or cells: E. coli
Outline: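 E. coli-expressed NS5B (BK, genotype 1b) with the 21 C-terminal residues replaced by a linker-His6 tag was preincubated with compound for 15 min at room temperature. It then extended a hairpin-primed heteropolymeric RNA (~3 nM, ~760 nt product) with α-[33P]-GTP for 2 h at 22–25° C. The reaction was stopped with EDTA, and incorporated label was counted on filters.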

[2] = target: BB7 (RNA-dependent RNA polymerase hepatitis C virus protein sequence derived from HCV replicon) (Hepatitis C virus genotype 1b, UniProt Q9WMX2); test: Hepatitis C polymerase inhibition, BB7 sequence; format: biochemical; conditions: Table 1B
Chain of BB7 (RNA-dependent RNA polymerase hepatitis C virus protein sequence derived from HCV replicon) (Q9WMX2 2420-3010): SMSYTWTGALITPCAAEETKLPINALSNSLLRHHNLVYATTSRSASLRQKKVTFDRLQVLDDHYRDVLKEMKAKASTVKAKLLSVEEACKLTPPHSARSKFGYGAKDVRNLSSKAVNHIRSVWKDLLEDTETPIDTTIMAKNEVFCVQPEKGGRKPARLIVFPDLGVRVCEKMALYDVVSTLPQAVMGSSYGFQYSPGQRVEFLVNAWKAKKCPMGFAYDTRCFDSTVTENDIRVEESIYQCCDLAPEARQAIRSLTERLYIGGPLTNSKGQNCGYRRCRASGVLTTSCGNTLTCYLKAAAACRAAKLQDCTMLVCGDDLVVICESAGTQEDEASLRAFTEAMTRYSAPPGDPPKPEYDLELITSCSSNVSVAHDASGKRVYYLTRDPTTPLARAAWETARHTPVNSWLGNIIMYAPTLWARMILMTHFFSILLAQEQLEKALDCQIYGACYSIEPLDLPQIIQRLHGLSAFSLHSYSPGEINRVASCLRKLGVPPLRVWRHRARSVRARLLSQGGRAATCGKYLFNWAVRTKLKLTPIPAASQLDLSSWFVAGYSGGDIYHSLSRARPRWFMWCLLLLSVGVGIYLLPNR

T1 sequence (P26663 2420-2989): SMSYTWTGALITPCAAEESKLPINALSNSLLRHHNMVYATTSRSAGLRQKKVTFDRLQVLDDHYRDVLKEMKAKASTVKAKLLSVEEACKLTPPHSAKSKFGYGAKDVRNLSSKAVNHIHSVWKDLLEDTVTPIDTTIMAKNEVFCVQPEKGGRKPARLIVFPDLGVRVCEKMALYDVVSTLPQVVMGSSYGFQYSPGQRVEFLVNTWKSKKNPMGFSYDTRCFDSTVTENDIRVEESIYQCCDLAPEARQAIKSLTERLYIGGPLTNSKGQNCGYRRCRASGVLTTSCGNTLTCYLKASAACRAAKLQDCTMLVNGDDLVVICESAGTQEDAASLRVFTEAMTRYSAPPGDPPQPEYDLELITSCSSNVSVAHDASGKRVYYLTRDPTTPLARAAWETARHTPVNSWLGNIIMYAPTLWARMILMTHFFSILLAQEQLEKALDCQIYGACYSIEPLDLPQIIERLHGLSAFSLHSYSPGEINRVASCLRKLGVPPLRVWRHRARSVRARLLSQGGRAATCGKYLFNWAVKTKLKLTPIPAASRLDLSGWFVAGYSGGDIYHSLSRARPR

Row | Molecule | pIC50 ([1]; Table 1A, read-out: HCV pol BK IC50) | melting point [°C] | pIC50 ([1]; Table 1B, read-out: BK IC50) | pIC50 [2]
1 | CCCC1(CC(=O)O)OCCc2c1[nH]c1c(F)ccc(C(=O)N3CCOCC3)c21 (stereo not shown) [Example 225, [8-Fluoro-5-(morpholine-4-carbonyl)-1-propyl-1,3,4,9-tetrahydro-pyrano[3,4-b]indol-1-yl]-acetic Acid] | < 4.70 | 98 to 100 |  | 
2 | CCCC1(CC(=O)O)OCCc2c1[nH]c1c(C)c(C(=O)NC(C)C)cc(C#N)c21 (stereo not shown) [Example 355, (5-cyano-7-isopropylcarbamoyl-8-methyl-1-propyl-1,3,4,9-tetrahydro-pyrano[3,4-b]indol-1-yl)-acetic acid] |  |  | 5.29 | 5.54
3 | CCCC1(CC(=O)O)OCCc2c1[nH]c1c(C)c(C(=O)NC)cc(C#N)c21 (stereo not shown) [Example 357, (5-cyano-8-methyl-7-methylcarbamoyl-1-propyl-1,3,4,9-tetrahydro-pyrano[3,4-b]indol-1-yl)-acetic acid] |  |  | 5.89 | 6.01
4 | CCCC1(CC(=O)O)OCCc2c1[nH]c1c(C)c(C(=O)N(C)C)cc(C#N)c21 (stereo not shown) [Example 358, (5-cyano-8-methyl-7-dimethylcarbamoyl-1-propyl-1,3,4,9-tetrahydro-pyrano[3,4-b]indol-1-yl)-acetic acid] |  |  | 4.80 | 4.70
5 | CCCOc1cc(C#N)c2c3c([nH]c2c1C)C(CCC)(CC(=O)O)OCC3 (stereo not shown) [Example 359, (5-cyano-8-methyl-7-propoxy-1-propyl-1,3,4,9-tetrahydro-pyrano[3,4-b]indol-1-yl)-acetic acid] |  |  | 7.15 | 7.15
6 | CCCOc1cc(C#N)c2c3c([nH]c2c1C)[C@@](CCC)(CC(=O)O)OCC3 [Example 360, (1R)-(5-cyano-8-methyl-7-propoxy-1-propyl-1,3,4,9-tetrahydro-pyrano[3,4-b]indol-1-yl)-acetic acid] |  |  | 7.05 | 7.40
7 | CCCOc1cc(C#N)c2c3c([nH]c2c1C)[C@](CCC)(CC(=O)O)OCC3 [Example 361, (1S)-(5-cyano-8-methyl-7-propoxy-1-propyl-1,3,4,9-tetrahydro-pyrano[3,4-b]indol-1-yl)-acetic acid] |  |  | 5.74 | 6.11
8 | CCCC1(CC(=O)O)OCCc2c1[nH]c1c(C)c(OC)cc(C#N)c21 (stereo not shown) [Example 363, (5-cyano-7-methoxy-8-methyl-1-propyl-1,3,4,9-tetrahydro-pyrano[3,4-b]indol-1-yl)-acetic acid] |  |  | 6.44 | 6.89
9 | CCCC1(CC(=O)O)OCCc2c1[nH]c1c(C)c(OC(C)C)cc(C#N)c21 (stereo not shown) [Example 364, (5-cyano-7-isopropoxy-8-methyl-1-propyl-1,3,4,9-tetrahydro-pyrano[3,4-b]indol-1-yl)-acetic acid] |  |  | 6.32 | 6.66
10 | CCCCOc1cc(C#N)c2c3c([nH]c2c1C)C(CCC)(CC(=O)O)OCC3 (stereo not shown) [Example 365, (7-butoxy-5-cyano-8-methyl-1-propyl-1,3,4,9-tetrahydro-pyrano[3,4-b]indol-1-yl)-acetic acid] |  |  | 7.00 | 7.22
11 | CCCC1(CC(=O)O)OCCc2c1[nH]c1c(C)c(OCCC(C)(C)C)cc(C#N)c21 (stereo not shown) [Example 366, [5-cyano-7-(3,3-dimethyl-butoxy)-8-methyl-1-propy-1,3,4,9-tetrahydro-pyrano[3,4-b]indol-1-yl]-acetic acid] |  |  | 5.77 | 6.26
12 | CCCC1(CC(=O)O)OCCc2c1[nH]c1c(C)c(OCc3cccc(F)c3)cc(C#N)c21 (stereo not shown) [Example 367, [5-cyano-7-(3-fluoro-benzyloxy)-8-methyl-1-propyl-1,3,4,9-tetrahydro-pyrano[3,4-b]indol-1-yl]acetic acid] |  |  | 7.10 | 7.05
13 | CCCC1(CC(=O)O)OCCc2c1[nH]c1c(C)c(OCc3ccccc3)cc(C#N)c21 (stereo not shown) [Example 368, (7-benzyloxy-5-cyano-8-methyl-1-propyl-1,3,4,9-tetrahydro-pyrano[3,4-b]indol-1-yl)-acetic acid] |  |  | 6.96 | 6.89
14 | CCCC1(CC(=O)O)OCCc2c1[nH]c1c(C)c(OCCF)cc(C#N)c21 (stereo not shown) [Example 369, [5-cyano-7-(2-fluoro-ethoxy)-8-methyl-1-propyl-1,3,4,9-tetrahydro-pyrano[3,4-b]indol-1-yl]acetic acid] |  |  | 8.40 | 8.00
15 | CCCC1(CC(=O)O)OCCc2c1[nH]c1c(C)c(OCCCF)cc(C#N)c21 (stereo not shown) [Example 370, [5-cyano-7-(3-fluoro-propoxy)-8-methyl-1-propyl-1,3,4,9-tetrahydro-pyrano[3,4-b]indol-1-yl]acetic acid] |  |  | 7.40 | 7.52
16 | (5-cyano-7-ethoxy-8-methyl-1-propyl-1,3,4,9-tetrahydro-pyrano[3,4-b]indol-1-yl)-acetic acid [Example 362] |  |  | 6.96 | 7.15
17 | (8-cyano-1-cyclobutyl-5-trifluoromethyl-1,3,4,9-tetrahydropyrano[3,4-b]indol-1-yl)acetic acid [Example 277] |  |  | 5.59 | 5.21
18 | (8-fluoro-5-nitro-1-propyl-1,3,4,9-tetrahydropyrano[3,4-b]indol-1-yl)carboxylic acid [Example 352] |  |  | 6.05 | 5.55
19 | [5-cyano-1-(1-ethylethyl)-8-fluoro-1,3,4,9-tetrahydropyrano[3,4-b]indol-1-yl]acetic acid [Example 311] |  |  | < 4.52 | < 4.52
20 | [5-cyano-1-(1-ethylethyl)-8-methyl-1,3,4,9-tetrahydropyrano[3,4-b]indol-1-yl]acetic acid [Example 294] |  |  | < 4.52 | < 4.52
